{
  "source": "paper PMC6155625",
  "about": "(Molecules : A Journal of Synthetic Chemistry and Natural …, 2017)",
  "key": {"[1]": {"test_system": "HepG2 cells", "experiment": "In vitro mammalian chromosome aberration test on HepG2", "type": "cell-based, human", "protocol": "HepG2 and VH10 cells were seeded into Petri dishes (Ø = 60 mm; HepG2 inoculum of 1 × 10^6 cells/dish and VH10 inoculum of 3.8 × 10^5 cells/dish) for 2 h. […] Three hours before the end of the cultivation, colchicine (0.75 µg/mL) was added. Before karyological processing, the cells were counted. Slides were prepared by the standard air-drying method and were stained with 2% aqueos Giemsa-Romanowski solution for 10 min.\n(§1) Chromosome aberrations were evaluated by a microscopic examination. For each sample, 100 metaphases were analyzed. We focused on the following structural aberrations; breaks, chromatid, and iso-chromatid, and exchanges, including dicentrics, rings, tri-radials and quadri-radials. The results were evaluated statistically on the basis of the difference between two relative values. The percentage of aberrant metaphases and the total number of chromosome aberrations was compared to solvent control (SC), or clastogenic effect, and positive control (PC), or anticlastogenic effect. Since the genetic significance of gaps is not clearly understood, they were not included in the assessment of chromosomal damage and thus were not evaluated statistically."}, "[2]": {"test_system": "VH10 cells", "experiment": "In vitro mammalian chromosome aberration test on VH10", "type": "cell-based, human", "conditions": "for Number of Aberrant Metaphases / Number of Chromosome Aberrations, Chromatid b/f / Number of Chromosome Aberrations, Chromatid g / Number of Chromosome Aberrations, Exchange qr / Number of Chromosome Aberrations, Exchange tr / Number of Chromosome Aberrations, Isochromatid b/f / Total Number of CA / Number of Chromosome Aberrations, Exchange dic: 100 metaphases", "protocol": "HepG2 and VH10 cells were seeded into Petri dishes (Ø = 60 mm; HepG2 inoculum of 1 × 10^6 cells/dish and VH10 inoculum of 3.8 × 10^5 cells/dish) for 2 h. Then, HF non-clastogenic concentrations (0.75 or 1.5 µM) were added and the cultures were incubated for 24 h. These concentrations of HF were chosen based on preliminary experiments (range-finding tests). Afterwards the medium was replaced with fresh medium alone or with fresh medium containing mutagens B(a)P (1.7 μM for HepG2 cells) or cisPt (0.5 μM for HepG2 cells and 0.75 μM for VH10 cells), and the HepG2 cells were cultivated further for 42 h and VH10 cells for 36 h, which approximately corresponds to 1.3 cell cycles of HepG2 and VH10 cells. Three hours before the end of the cultivation, colchicine (0.75 µg/mL) was added. Before karyological processing, the cells were counted. Slides were prepared by the standard air-drying method and were stained with 2% aqueos Giemsa-Romanowski solution for 10 min.\nas §1"}, "[3]": {"test_system": "HepG2 cells", "conditions": "read-out: IC50 (cell survival, MTT), 42 h treatment", "protocol": "Thereafter, the medium was removed, and replaced by 200 µL of DMSO. The absorbance was measured at 540 and 690 nm using an xMarkTM Microplate Spectrophotometer (Bio-Rad Laboratories, Inc., Berkeley, CA, USA)."}, "[4]": {"test_system": "human lymphocytes", "conditions": "HF 0.02–1 µM pretreatment, then zeocin 4.5 µM", "method": "In the alkaline comet assay human lymphocytes were used. They were isolated from peripheral blood obtained by the finger prick method. To 1 mL of ice cold 1× PBS, 40 μL of peripheral blood was added and allowed to stand on ice for 30 min. Lymphocytes were separated from whole blood samples by standard centrifugation with 100 μL of the Histopaque medium (Sigma-Aldrich). After the centrifugation, 200 μL of isolated cells were resuspended in 1 mL of 1× PBS buffer and re-centrifuged.\nThis assay was selected for detecting the potential antigenotoxic effect of HF towards zeocin on the human lymphocytes. […] Briefly, human lymphocytes were suspended in 1% low melting point agarose (LMP) in PBS and placed on slides pre-coated with 1% normal melting point agarose (NMP). Slides with embedded lymphocytes were incubated for 1 h in HF solution (0.02; 0.05; 0.2; 1 µM). […] Afterwards, the zeocin solution was rinsed off with PBS. […] For the negative control, cells were left untreated in PBS for 1 h. […] Finally, the slides were stained with 20 µg/mL of ethidium bromide (Sigma-Aldrich, Bratislava, Slovakia), and, in each sample, 100 random nucleoids were scored at magnification 400× using a fluorescence microscope Olympus BX 51. The DNA damage was evaluated using the Comet visual computer software. DNA damage was expressed as the percentage of DNA in the tail (% tail DNA) [55]. […]"}, "[5]": {"test_system": "Salmonella typhimurium TA97", "conditions": "HF 0.075–2 µg/plate + 9-aminoacridine 50 µg/plate; without S9", "protocol": "(§2) The Ames assay was conducted according to the method modified by Maron and Ames. In the Ames test, three bacterial strains of S. typhimurium (TA97, TA98, and TA100) were used. These strains are deficient in histidine and biotin, and, at the same time, they are deficient in excision repair. Prior to each experiment, the quality of each bacterial strain was checked similarly, as described by Berg et al.. The assay was carried out in sterile test tubes containing 100 µL (approximately 1.10^8 cells/mL) of overnight bacterial culture (overnight cultivated in 50 mL of LB medium) and 2.5 mL of the top-agar (with traces of histidine and biotin). In the case of metabolic activation, S9 mix was used to activate a promutagen 2-aminofluorene (50 µg/plate, Serva, Heidelberg, Germany). […] As positive controls (PC), the following diagnostic/direct mutagens were used: 9-aminoacridine (50 µg/plate, Serva, Heidelberg, Germany) for TA97; 4-nitroquinoline-1-oxide (20 µg/plate, Serva, Heidelberg, Germany) for TA98; and sodium azide (50 µg/plate, Serva, Heidelberg, Germany) for TA100. […] After 48 h of cultivation at 37 °C, his^+ revertants were counted. All experiments were conducted in triplicate. The data obtained were then analyzed using Student’s t-test."}, "[6]": {"test_system": "S. typhimurium TA98", "conditions": "all HF concentrations (0.075–2 µg/plate) + 4-NQO 20 µg/plate; without S9", "protocol": "as §2"}, "[7]": {"test_system": "S. typhimurium TA100", "conditions": "HF 0.075–2 µg/plate + sodium azide 50 µg/plate; without S9", "protocol": "as §2"}, "[8]": {"conditions": "cisPt 0.5 µM (positive control), 100 metaphases"}, "[9]": {"conditions": "cisPt 0.75 µM (positive control)"}, "[10]": {"conditions": "HF 0.75 µM pretreatment 24 h + cisPt 0.5 µM, 100 metaphases"}, "[11]": {"conditions": "HF 0.75 µM pretreatment + B(a)P 1.7 µM, 100 metaphases"}, "[12]": {"conditions": "HF 1.5 µM pretreatment 24 h + cisPt 0.5 µM, 100 metaphases"}, "[13]": {"conditions": "HF 1.5 µM pretreatment + B(a)P 1.7 µM, 100 metaphases"}, "[14]": {"conditions": "HF 0.75 µM pretreatment 24 h + cisPt 0.75 µM"}, "[15]": {"conditions": "HF 1.5 µM pretreatment 24 h + cisPt 0.75 µM"}},
  "note": "Marks after values point to notes of the source that are not given here.",
  "data": [
    {"compound": "N.N.[Cl][Pt][Cl]", "note": "[cisPt, cisplatinum(II)diamine dichloride, reference compound]", "values": [
      {"measurement": "Number of Aberrant Metaphases", "setting": "[1]; [8]", "value": "38 ***"},
      {"measurement": "Number of Chromosome Aberrations, Chromatid b/f", "setting": "[1]; [8]", "value": 36},
      {"measurement": "Number of Chromosome Aberrations, Chromatid g", "setting": "[1]; [8]", "value": 2},
      {"measurement": "Number of Chromosome Aberrations, Exchange dic", "setting": "[1]; [8]", "value": 2},
      {"measurement": "Number of Chromosome Aberrations, Exchange qr", "setting": "[1]; [8]", "value": 1},
      {"measurement": "Number of Chromosome Aberrations, Isochromatid b/f", "setting": "[1]; [8]", "value": 8},
      {"measurement": "Total Number of CA", "setting": "[1]; [8]", "value": "47 ***"},
      {"measurement": "Number of Aberrant Metaphases", "setting": "[2]; [9]", "value": "33 ***"},
      {"measurement": "Number of Chromosome Aberrations, Chromatid b/f", "setting": "[2]; [9]", "value": 26},
      {"measurement": "Number of Chromosome Aberrations, Chromatid g", "setting": "[2]; [9]", "value": 2},
      {"measurement": "Number of Chromosome Aberrations, Exchange qr", "setting": "[2]; [9]", "value": 4},
      {"measurement": "Number of Chromosome Aberrations, Exchange tr", "setting": "[2]; [9]", "value": 5},
      {"measurement": "Number of Chromosome Aberrations, Isochromatid b/f", "setting": "[2]; [9]", "value": 9},
      {"measurement": "Total Number of CA", "setting": "[2]; [9]", "value": "44 ***"}
    ]},
    {"compound": "Hyperforin [HF]", "values": [
      {"measurement": "Number of Aberrant Metaphases", "setting": "[1]; [10]", "value": "10 *^,###"},
      {"measurement": "Number of Chromosome Aberrations, Chromatid b/f", "setting": "[1]; [10]", "value": 5},
      {"measurement": "Number of Chromosome Aberrations, Chromatid g", "setting": "[1]; [10]", "value": 2},
      {"measurement": "Number of Chromosome Aberrations, Exchange dic", "setting": "[1]; [10]", "value": 2},
      {"measurement": "Number of Chromosome Aberrations, Isochromatid b/f", "setting": "[1]; [10]", "value": 4},
      {"measurement": "Total Number of CA", "setting": "[1]; [10]", "value": "11 *^,###"},
      {"measurement": "Number of Aberrant Metaphases", "setting": "[1]; [11]", "value": "8 ^###"},
      {"measurement": "Number of Chromosome Aberrations, Chromatid b/f", "setting": "[1]; [11]", "value": 7},
      {"measurement": "Number of Chromosome Aberrations, Chromatid g", "setting": "[1]; [11]", "value": 1},
      {"measurement": "Number of Chromosome Aberrations, Isochromatid b/f", "setting": "[1]; [11]", "value": 1},
      {"measurement": "Total Number of CA", "setting": "[1]; [11]", "value": "8 ^###"},
      {"measurement": "Number of Aberrant Metaphases", "setting": "[1]; [12]", "value": "14 **^,###"},
      {"measurement": "Number of Chromosome Aberrations, Chromatid b/f", "setting": "[1]; [12]", "value": 10},
      {"measurement": "Number of Chromosome Aberrations, Chromatid g", "setting": "[1]; [12]", "value": 2},
      {"measurement": "Number of Chromosome Aberrations, Exchange dic", "setting": "[1]; [12]", "value": 1},
      {"measurement": "Number of Chromosome Aberrations, Isochromatid b/f", "setting": "[1]; [12]", "value": 3},
      {"measurement": "Total Number of CA", "setting": "[1]; [12]", "value": "14 **^,###"},
      {"measurement": "Number of Aberrant Metaphases", "setting": "[1]; [13]", "value": "8 ^###"},
      {"measurement": "Number of Chromosome Aberrations, Chromatid b/f", "setting": "[1]; [13]", "value": 8},
      {"measurement": "Number of Chromosome Aberrations, Chromatid g", "setting": "[1]; [13]", "value": 1},
      {"measurement": "Number of Chromosome Aberrations, Exchange dic", "setting": "[1]; [13]", "value": 1},
      {"measurement": "Total Number of CA", "setting": "[1]; [13]", "value": "9 ^###"},
      {"measurement": "amount of aberrant metaphases and chromosome aberrations", "setting": "[1]; HF 0.75 and 1.5 µM pretreatment 24 h, then cisPt 0.5 µM", "value": "significant decrease"},
      {"measurement": "IC50", "setting": "[3]", "value": 19.9, "unit": "µM"},
      {"measurement": "percentage of damaged DNA vs positive control (zeocin)", "setting": "[4]", "value": "significantly decreased the percentage of damaged DNA"},
      {"measurement": "number of his+ revertants vs positive control", "setting": "[5]", "value": "decrease"},
      {"measurement": "number of his+ revertants vs positive control", "setting": "[6]", "value": "significant decrease"},
      {"measurement": "antimutagenic effect", "setting": "[7]", "value": "not observed"},
      {"measurement": "Number of Aberrant Metaphases", "setting": "[2]; [14]", "value": "12 **^,###"},
      {"measurement": "Number of Chromosome Aberrations, Chromatid b/f", "setting": "[2]; [14]", "value": 8},
      {"measurement": "Number of Chromosome Aberrations, Chromatid g", "setting": "[2]; [14]", "value": 1},
      {"measurement": "Number of Chromosome Aberrations, Exchange dic", "setting": "[2]; [14]", "value": 1},
      {"measurement": "Number of Chromosome Aberrations, Exchange qr", "setting": "[2]; [14]", "value": 1},
      {"measurement": "Number of Chromosome Aberrations, Exchange tr", "setting": "[2]; [14]", "value": 1},
      {"measurement": "Number of Chromosome Aberrations, Isochromatid b/f", "setting": "[2]; [14]", "value": 3},
      {"measurement": "Total Number of CA", "setting": "[2]; [14]", "value": "14 ***^,###"},
      {"measurement": "Number of Aberrant Metaphases", "setting": "[2]; [15]", "value": "11 **^,###"},
      {"measurement": "Number of Chromosome Aberrations, Chromatid b/f", "setting": "[2]; [15]", "value": 8},
      {"measurement": "Number of Chromosome Aberrations, Chromatid g", "setting": "[2]; [15]", "value": 3},
      {"measurement": "Number of Chromosome Aberrations, Exchange dic", "setting": "[2]; [15]", "value": 1},
      {"measurement": "Number of Chromosome Aberrations, Exchange tr", "setting": "[2]; [15]", "value": 2},
      {"measurement": "Total Number of CA", "setting": "[2]; [15]", "value": "11 **^,###"},
      {"measurement": "amount of aberrant metaphases and chromosome aberrations", "setting": "[2]; HF pretreatment 24 h, then cisPt 0.75 µM", "value": "significant decrease"}
    ]}
  ]
}
